Test [1] deals with T1, K^b sol (soluble H-2K^b with murine β-2 microglobulin) (Mus musculus, UniProt P01901).
T1 construct: The cDNAs encoding K^b α1α2α3 domains (274 residues) and murine β-2 microglobulin (99 residues); made in house; host or cells: Drosophila S2/M3 cells, secreted into serum-free medium
T1 sequence (P01901 22-295): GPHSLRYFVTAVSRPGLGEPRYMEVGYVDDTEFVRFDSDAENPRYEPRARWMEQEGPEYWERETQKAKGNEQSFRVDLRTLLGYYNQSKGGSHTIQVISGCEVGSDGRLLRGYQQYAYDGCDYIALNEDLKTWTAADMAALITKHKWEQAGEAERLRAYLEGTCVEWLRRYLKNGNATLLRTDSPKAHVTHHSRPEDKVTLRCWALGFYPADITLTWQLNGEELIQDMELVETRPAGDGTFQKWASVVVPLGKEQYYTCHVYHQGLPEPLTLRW
T1 sequence (P01887 21-119 partner): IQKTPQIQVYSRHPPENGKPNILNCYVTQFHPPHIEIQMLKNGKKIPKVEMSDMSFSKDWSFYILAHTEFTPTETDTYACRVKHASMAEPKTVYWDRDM
Description: biochemical. It is filed as binding.

A further test relates to B3/CD8 T-cell hybridoma. The experiment in a line: antigen presentation assay with B3/CD8 T-cell hybridoma (IL-2 by CTLL 3H thymidine incorporation). Type of test: cell-based, mouse. Conditions: Drosophila cells transfected with K^b/β2; peptide in culture medium or protein osmotically loaded. On the procedure:
Osmotic loading of SC2 and 3T3 cells with ovalbumin protein was carried out as described by Moore, et al., Cell 54: 777-785 (1988). The assay procedure is as follows. In a 96-well dish, 1×10^5 Drosophila cells (with or without peptide/protein loaded) or 3T3 cells were cocultured with 1×10^5 B3/CD8 T-cell hybridoma cells in 200 μl of RPMI media supplemented with 10% fetal bovine serum. After 24 hours of incubation, 100 μl of the supernatant from these cultures was added to 100 μl of RPMI containing 5,000 CTLL cells. The cells were cocultured for 24 hours at 37° C. when 1 μCi of ^3 H thymidine (Amersham) was added. After a further incubation of 15 hours at 37° C., the incorporation of radiolabel into the CTLL cells was determined by scintillation counting.
Assays conducted with murine MHC also verified that the insect cells are capable of loading peptide onto the Class I molecules. Cells expressing as few as 200-500 MHC molecules containing a particular antigen can be detected by a T-cell. […] Upon antigenic stimulation, B3/CD8 produces IL-2, measured by ^3 H thymidine incorporation in IL-2-dependenT-cell line CTLL (Gillis, et al., J. Immunol. 120: 2027 91978)). Thus, by measuring the amount of IL-2 produced, one can assay for T-cell recognition. […]
(Incorporation of labelled thymidine or its analogues reports DNA synthesis.)

Consider `CC(C)C[C@H](NC(=O)CNC(=O)[C@H](CCC(N)=O)NC(=O)[C@H](Cc1ccc(O)cc1)NC(=O)[C@@H](NC(=O)[C@H](Cc1ccc(O)cc1)NC(=O)CNC(=O)[C@@H](N)CCCNC(=N)N)C(C)C)C(=O)O` [VSV-8], for which the affinity in test [1], expressed as Kd, was 3.7 nM.

B1: ovalbumin (protein, UniProt P01012 2-386, looked up)
Ovalbumin: GSIGAASMEFCFDVFKELKVHHANENIFYCPIAIMSALAMVYLGAKDSTRTQINKVVRFDKLPGFGDSIEAQCGTSVNVHSSLRDILNQITKPNDVYSFSLASRLYAEERYPILPEYLQCVKELYRGGLEPINFQTAADQARELINSWVESQTNGIIRNVLQPSSVDSQTAMVLVNAIVFKGLWEKAFKDEDTQAMPFRVTEQESKPVQMMYQIGLFRVASMASEKMKILELPFASGTMSMLVLLPDEVSGLEQLESIINFEKLTEWTSSNVMEERKIKVYLPRMKMEEKYNLTSVLMAMGITDVFSSSANLSGISSAESLKISQAVHAAHAEINEAGREVVGSAEAGVDAASVSEEFRADHPFLFCIKHIATNAVLFFGRCVSP
notes: ovalbumin (Sigma) osmotically loaded into the cells
Take B1: in the test with B3/CD8 T-cell hybridoma, the “T-cell recognition (IL-2 production by B3/CD8)” value was “no recognition occurred”.

Usually Kd stands for the concentration at which binding is half-saturated. Low values mean tighter binding, high ones weaker binding.

Source of the values: patent US6251627A (priority 1998, dated 2001).
